In assay [1] the target is T1, C1a receptor (C1a-type calcitonin receptor) (Rattus norvegicus, UniProt P32214).
T1 construct: expressed in transfected cells
T1 sequence (P32214 25-479 isoform P32214-2 limits assumed): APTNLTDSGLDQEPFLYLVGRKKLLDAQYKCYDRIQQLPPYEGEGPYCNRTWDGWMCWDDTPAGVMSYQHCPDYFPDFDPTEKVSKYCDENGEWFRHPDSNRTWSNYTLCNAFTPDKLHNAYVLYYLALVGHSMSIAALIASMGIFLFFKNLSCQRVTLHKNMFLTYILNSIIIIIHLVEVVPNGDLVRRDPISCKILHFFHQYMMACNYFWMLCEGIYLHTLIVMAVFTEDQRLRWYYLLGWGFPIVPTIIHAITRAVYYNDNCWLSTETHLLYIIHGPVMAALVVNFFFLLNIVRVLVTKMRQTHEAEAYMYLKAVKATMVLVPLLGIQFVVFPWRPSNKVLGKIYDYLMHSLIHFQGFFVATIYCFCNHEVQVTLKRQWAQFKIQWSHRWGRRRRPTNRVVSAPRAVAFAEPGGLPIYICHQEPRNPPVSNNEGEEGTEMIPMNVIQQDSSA
Description: C1a/293 competitive binding, displacement of [125I]-human calcitonin (Example C). As to conditions: HEK293 plasma membranes (C1a/293), [125I]-human calcitonin 20 pM. The procedure:
Peptide compounds of the present invention may be evaluated for binding to the C1a receptor using the procedures described in Example C. The C1a receptor is the predominant mammalian calcitonin receptor subtype. C1a pcDNA construction and transfection were carried out as previously described (Albrandt et al. 1993, FEBS Letters, 325:225-232). HEK293 cell lines showing stable expression of the rat C1a-type calcitonin receptor (C1a/293) or the human C1a-type calcitonin receptor (1154/293) were selected by G418 resistance and limiting dilution culture methods. Plasma membranes were collected from homogenized HEK293 cells and used in the receptor binding assay. Individual test peptides at concentrations spanning 6 log units starting at around 10^-6 M were examined for their ability to displace [^125 I]-human calcitonin from the plasma membrane preparation using a 96-well microtiter plate format and scintillation counting with a Wallac LKB Beta plate counter. Competitive binding curves were constructed. Non-specific binding was measured in the presence of 100 nM calcitonin. Peptide potencies (IC50 's for competitive binding) were calculated by non-linear regression using Prism™ (version 2.01, GraphPAD Software, San Diego, Calif.).
C1a/293 Competitive Binding Studies:
Compounds were evaluated for competition in binding to the C1a receptor as follows:
(§1) Reference peptides used in these studies were purchased from Bachem (Torrance, Calif.). All other chemicals were of the highest commercial grade. [^35 S]-GTPγS was purchased from NEN Life Science Products, Inc., Pittsburgh, Pa. [^125 I]-human calcitonin was purchased from Amersham Pharmacia Biotech, Inc., Piscataway, N.J.
Methods for C1a pcDNA construction and transfection have been previously described (Albrandt, et al. 1993). HEK293 cell lines stably expressing the rat C1a-type calcitonin receptor (C1a/293) or the human C1a-type calcitonin receptor (1154/293) were selected by G418 resistance and limiting dilution culture methods.
(§2) Confluent cells were detached from tissue culture flasks by incubation with 5 mM EDTA in PBS. Cells were homogenized in ice-cold 20 mM HEPES, pH 7.4 with a Polytron homogenizer. Plasma membranes were collected using three cycles of washing in fresh buffer followed by centrifugation for 15 minutes at 48,000×g. The final membrane pellet was resuspended in 20 mM HEPES buffer containing 0.2 mM phenylmethylsulfonyl fluoride (PMSF) and stored at -70° C.
Assay buffer contained 5 μg/mL bestatin, 1 μg/mL phosphoramidon, 1 mg/mL bovine serum albumin (fraction V), 1 mg/mL bacitracin, 1 mM MgCl2, and 20 mM HEPES, pH 7.4. Membranes (2-5 μg membrane protein/well), [^125 I]-human calcitonin (20 pM), and peptides were combined in 200 μL buffer in 96-well microtiter plates. After a 60 minute incubation at room temperature, well contents were harvested onto polyethyleneimine-treated GF/B glass fiber pads using a Tomtec Mach II plate harvestor (Hamden, Conn.). Dried pads were combined with scintillant and counted on a Wallac LKB Beta Plate scintillation counter (Gaithersburg, Md.). For competitive binding curves, samples were run in duplicate over a 6 log concentration range starting at 10^-6 or 10^-7 M. Non-specific binding was measured in the presence of 100 nM human calcitonin.
Background: In a radioligand displacement assay an active substance lowers the binding of a labelled ligand.

For assay [2], the target named is T1, C1a receptor (C1a-type calcitonin receptor). Description: biochemical. As to conditions: HEK293 plasma membranes, [35S]-GTPγS 200 pM; read-out: ED50 (nM) Example B (C1a GTPγS).
Source text: Peptide compounds of the present invention may be evaluated for agonist activity using the procedures described in Example B. The plasma membrane preparation of a 7-transmembrane-G-protein coupled receptor (GPCR) contains not only the receptor but also the G-proteins which constitute the first step in the intracellular signal transduction process when the receptor is activated by an agonist ligand. […] Agonist activation of a GPCR is accompanied by displacement of GDP by GTP from this site. Thus, measurement of the binding of a radiolabelled ligand, namely [^35 S]-GTPγS, for this binding site constitutes a measure of agonist potency for a given ligand. For agonism at the C1a receptor, a similar membrane preparation to that described below for the C1a binding studies is used. C1a pcDNA construction and transfection were carried out as previously described (Albrandt et al. 1993, FEBS Letters, 325:225-232). HEK293 cell lines showing stable expression of the rat C1a-type calcitonin receptor (C1a/293) or the human C1a-type calcitonin receptor (1154/293) were selected by G418 resistance and limiting dilution culture methods. Plasma membranes were collected from homogenized HEK293 cells and used in the [^35 S]-GTPγS assay. Individual test peptides at concentrations spanning 6 log units starting at around […] were examined for their ability to bind [^35 S]-GTPγS. Maximum agonist-specific binding was measured in the presence of 1 μM human calcitonin, constitutive binding was measured in the presence of buffer alone. Peptide potencies (EC50 's for concentration response curves) were calculated by non-linear regression using Prism™ (version 2.01, GraphPAD Software, San Diego, Calif.).
[^35 S]-GTPγS C1a Agonist Studies
Evaluation of the agonist activity of compounds versus the C1a receptor was carried out as follows:
as §1
Methods for C1a pcDNA construction and transfection have been previously described (Albrandt, et al. 1993, FEBS Letters, 325:225-232). HEK293 cell lines stably expressing the rat C1a-type calcitonin receptor (C1a/293) or the human C1a-type calcitonin receptor (1154/293) were selected by G418 resistance and limiting dilution culture methods.
as §2
Assay buffer contained 1 μM GDP, 1 mM EDTA, 5 mM MgCl2, 20 mM Hepes, and 150 mM NaCl, pH 7.4. Membranes (7.5 μg membrane protein/well), [^35 S]-GTPγS (200 pM), and peptides were combined in 200 μL buffer in 96-well microtiter plates. After a 75 minute incubation at room temperature, well contents were harvested onto GF/B glass fiber pads using a Tomtec Mach II plate harvestor (Hamden, Conn.). Dried pads were combined with scintillant and counted on a Wallac LKB Beta Plate scintillation counter. For concentration response curves, samples were run in duplicate over a 6 log concentration range starting at 10^-6 M or 10^-7 M. Maximum agonist-specific binding was measured in the presence of 1 μM human calcitonin, constitutive binding was measured in the presence of buffer alone.
Peptide potencies (1C50 's for competitive binding, and EC50 's for concentration response curves) were calculated by non-linear regression using Prism (version 2.01, GraphPAD Software, San Diego, Calif.).
Background: GTPγS resists hydrolysis and so accumulates on activated G proteins.

In assay [3] the test system is gastric emptying in conscious rats. As to conditions: for Inhibition of gastric emptying (in words): conscious rat model. The text has this: Peptide compounds of the present invention may be evaluated for amylin agonist activity using the methods of measuring the rate of gastric emptying disclosed in, for example, Young et al., Diabetologia, 38(6):642-648 (1995). In a phenol red method, which is described in Example D below, conscious rats receive by gavage an a caloric gel containing methyl cellulose and a phenol red indicator. Twenty minutes after gavage, animals are anesthetized using halothane, the stomach exposed and clamped at the pyloric and lower esophageal sphincters, removed and opened into an alkaline solution. Stomach content may be derived from the intensity of the phenol red in the alkaline solution, measured by absorbance at a wavelength of 560 nm. In a tritiated glucose method, conscious rats are gavaged with tritiated glucose in water. The rats are gently restrained by the tail, the tip of which is anesthetized using lidocaine. Tritium in the plasma separated from tail blood is collected at various timepoints and detected in a beta counter. Test compounds are normally administered about one minute before gavage.
Phenol Red Gastric Emptying Assay:
Gastric emptying was measured using a modification (Plourde et al., Life Sci. 53:857-862 (1993)) of the original method of Scarpignato et al. (Arch. Int. Pharmacodyn. Ther. 246:286-295 (1980)). Conscious rats received by gavage. 1.5 mL of an a caloric gel containing 1.5% methyl cellulose (M-0262, Sigma Chemical Co., St. Louis, Mo.) and 0.05% phenol red indicator. Twenty minutes after gavage, rats were anesthetized using 5% halothane, the stomach exposed and clamped at the pyloric and lower esophageal sphincters using artery forceps, removed and opened into an alkaline solution which was made up to a fixed volume. Stomach content was derived from the intensity of the phenol red in the alkaline solution, measured by absorbance at a wavelength of 560 nm. […] In other experiments, particulate gastric contents were centrifuged to clear the solution for absorbance measurements. Where the diluted gastric contents remained turbid, the spectroscopic absorbance due to phenol red was derived as the difference between that present in alkaline versus acidified dilutent.
In separate experiments on 7 rats, the stomach and small intestine were both excised and opened into an alkaline solution. […] Percent gastric emptying contents remaining=(absorbance at 20 min)/(absorbance at 0 min). For those compounds for which ED50 data is presented, dose response curves for gastric emptying were fitted to a 4-parameter logistic model using a least-squares iterative routine (ALLFIT, v2.7, NIH, Bethesda, Md.) to derive ED50 s. Because ED50 is log-normally distributed, it is expressed ± standard error of the logarithm. Pairwise comparisons were performed using one-way analysis of variance and the Student-Newman-Keuls multiple comparisons test (Instat v2.0, GraphPad Software, San Diego, Calif.) using P<0.05 as the level of significance.
As a reference point for dose response studies, rat amylin (Bachem, Torrance, Calif.) dissolved in 0.15M saline, was administered as a 0.1 mL subcutaneous bolus in doses of 0, 0.01, 0.1, 1, 10 or 100 μg 5 minutes before gavage in Harlan Sprague Dawley (non-diabetic) rats fasted 20 hours and diabetic BB rats fasted 6 hours.

For assay [4] the following is noted: in vivo in rats, rabbits and humans with Paget's disease; cited from earlier work.

Read-outs that look alike come from different tables or passages of the source. Where a SMILES comes first, the peptide text is derived from it. Bridges are numbered along the chain shown (N, C = ends). Where no end group is shown, it is not given here.

These results are taken from patent publication US6087334A, “Anti-diabetic peptides” (Amylin Pharmaceuticals, Inc., priority 1998, dated 2000).

The IC50 is the midpoint of a concentration-inhibition curve. On to `CC(C)C[C@H](NC(=O)[C@H](Cc1ccccc1)NC(=O)[C@H](CC(N)=O)NC(=O)[C@H](C)NC(=O)[C@H](CC(C)C)NC(=O)[C@H](CCCNC(=N)N)NC(=O)[C@H](CCC(N)=O)NC(=O)[C@@H](NC(=O)[C@H](C)NC(=O)[C@@H]1CSSC[C@H](NC(=O)[C@@H](N)CCCCN)C(=O)N[C@@H](CC(N)=O)C(=O)N[C@@H]([C@@H](C)O)C(=O)N[C@@H](C)C(=O)N[C@@H]([C@@H](C)O)C(=O)N1)[C@@H](C)O)C(=O)N[C@@H](C)C(=O)N[C@@H](CCCNC(=N)N)C(=O)N[C@@H](CO)C(=O)N[C@@H](CO)C(=O)NCC(=O)N[C@@H](Cc1ccc(O)cc1)C(N)=O` [Example 16] (H-KCNTATCATQRLANFLARSSGY-NH2; disulfide 2-7), for which the IC50 in assay [1] came out at 20 nM. For the same compound, the EC50 in assay [2] amounted to 1.4 nM.

For “Adrenomedullin (YRQSMNNFQGLRSFGCRFGTCTVQKLAHQIYQFTDKDKDNVAPRSKISPQGY; ends and bridges not checked; cysteine pairing not given here; UniProt P35318 95-146, looked up)”, in assay [3] (highest doses (100 μg)), the “Inhibition of gastric emptying (in words)” value (shortened to “Inhibition … (in words)”) is “does not inhibit gastric emptying”.

Regarding “amylin (KCNTATCATQRLANFLVHSSNNFGAILSSTNVGSNTY-NH2; not fully specified (bridges); cysteine pairing not given here; UniProt P10997 34-70, looked up)”, the “Lowering of plasma calcium” value in assay [4] is “up to 20%”. In addition, in assay [3] (dose response), the “Inhibition … (in words)” value is given as “dose-dependently inhibit gastric emptying”.

Regarding rat amylin, in assay [3] (dose response), the “Inhibition … (in words)” value is reported as “dose-dependent suppression of gastric emptying”. The “ED50 for inhibition of gastric emptying” value in assay [3] (diabetic BB rats fasted 6 hours, subcutaneous bolus 5 minutes before gavage) was found to be 2.2 µg. Further, the “Suppression of gastric emptying” value in assay [3] (diabetic rats, 10 μg subcutaneous) is recorded as “complete”; in assay [3] (normal HSD rats, 1 μg subcutaneous), “complete”. Besides, in assay [3] (inhibition of gastric emptying, conscious rats, phenol red, 20 min after gavage), the “Example D ED50” value came to 0.26 µg.

As to “rat calcitonin (CGNLSTCMLGTYTQDLNKFHTFPQTSIGVGAP; ends and bridges not checked; cysteine pairing not given here; UniProt P01257 85-116, looked up)”, the “Inhibition … (in words)” value in assay [3] (dose response) is recorded as “dose-dependently inhibit gastric emptying”.

Turning to salmon calcitonin, the “Inhibition … (in words)” value in assay [3] (dose response) is given as “dose-dependently inhibit gastric emptying”.
